From patent US20220175798A1, “COMPOSITIONS COMPRISING OXYGENATED CHOLESTEROL SULFATE AND AT LEAST ONE OF POLYALKYLENE GLYCOL, CARBOXYMETHYL CELLULOSE AND POLYOXYLGLYCERIDE” (Durect Corporation, priority 2016, published 2022)
Values joined by “and” are separate entries in the source; they are usually repeats but may differ in a detail not shown here. Identical values can stand only once.

Test: Particle size analysis by Malvern Mastersizer 2000 (laser diffraction)
Assay type: physicochemical
Method: Two lots of 25HC3S sodium salt (Lot #A and Lot #B) were first passed through either 20 mesh or 35 mesh stainless steel sieves for particle size analysis. The particle sizes were further reduced by jet milling and analyzed again. All particle size analyses were determined using a Malvern Mastersizer 2000.
Fluid Energy Model 00 Jet-O-Mizer was used for all jet-milling. Malvern Mastersizer 2000 equipped with a Hydro 2000S dispersion cell was used for particle size analysis.
Approximately 60 mg of API was weighed into a 4 mL screw cap vial and 1 mL water, USP was added to the vial. […] Duplicate samples from each single sample preparation were analyzed.
Particle refractive index was assumed to be 1.53 (not measured by refractometer) and particle absorption index was 0.01. Dispersant (water, USP, presaturated with 25HC3 S) refractive index was 1.33. […] Throughout the measurement, the pump rate was 3000 rpm without sonication. The measurement integration time was 20,000 ms; the numbers of measurements for each sample were 5 with a 20 seconds delay in between two measurements. Analysis model: General purpose

[1] = 20 mesh sieve then Jet milling 1st pass (1st milling sample, feed rate not controlled), sodium salt
[2] = 20 mesh sieve then Jet milling 2nd pass, sodium salt
[3] = 20 mesh sieve then Jet milling 3rd pass, sodium salt
[4] = Press through 20 mesh sieve with a stainless steel spatula, sodium salt
[5] = Press through 35 mesh sieve with a stainless steel spatula
[6] = 20 mesh sieve then Jet milling 1st pass (2nd milling sample, feed rate 1 g/min)

| Structure (SMILES) | d (0.1) [1] | d (0.5) [1] | d (0.9) [1] | d (0.1) [2] | d (0.5) [2] | d (0.9) [2] | d (0.1) [3] | d (0.5) [3] | d (0.9) [3] | d (0.1) [4] | d (0.5) [4] | d (0.9) [4] | further results |
| --- | --- | --- | --- | --- | --- | --- | --- | --- | --- | --- | --- | --- | --- |
| C[C@H](CCCC(C)(C)O)[C@H]1CC[C@H]2[C@@H]3CC=C4C[C@@H](OS(=O)(=O)[O-])CC[C@]4(C)[C@H]3CC[C@]12C.[Na+] [Lot# A, 25HC3S sodium salt] | 0.705 μm | 2.091 μm | 5.180 μm | 0.384 μm and 0.496 μm | 1.214 μm and 1.320 μm | 4.026 μm and 4.035 μm | 0.137 μm and 0.120 μm | 0.664 μm and 0.580 μm | 2.896 μm and 2.755 μm | 2.268 μm and 2.474 μm | 6.324 μm and 6.905 μm | 18.712 μm and 20.290 μm | d (0.9) (20 mesh sieve then Jet milling 1st pass (1st milling sample, feed rate not controlled), listed as Lot #A, sodium salt): 5.180 μm; d (0.9) (20 mesh sieve then Jet milling 3rd pass, listed as Lot #A, sodium salt): 2.755 μm; d (0.1) [5]: 2.536 μm; d (0.5) [5]: 7.147 μm; d (0.9) [5]: 22.195 μm |
| C[C@H](CCCC(C)(C)O)[C@H]1CC[C@H]2[C@@H]3CC=C4C[C@@H](OS(=O)(=O)[O-])CC[C@]4(C)[C@H]3CC[C@]12C.[Na+] [Lot# B, 25HC3S sodium salt] | 2.148 μm and 1.822 μm | 6.858 μm and 5.126 μm | 29.028 μm and 22.070 μm | 1.431 μm and 1.109 μm | 4.192 μm and 3.920 μm | 15.878 μm and 13.196^4 μm | 0.976 μm and 0.651 μm | 4.251 μm and 2.329 μm | 16.17 μm | 4.132 μm and 4.947 μm | 15.439 μm and 21.437 μm | 43.740 μm and 68.250 μm | d (0.9) (20 mesh sieve then Jet milling 1st pass (1st milling sample, feed rate not controlled), listed as Lot #B, sodium salt): 22.07 μm and 16.17 μm; d (0.1) [6]: 1.253 μm; d (0.5) [6]: 3.172 μm; d (0.9) (20 mesh sieve then Jet milling 1st pass (2nd milling sample, feed rate 1 g/min), listed as Lot #B, sodium salt): 9.09 μm; d (0.9) (20 mesh sieve then Jet milling 1st pass (2nd milling sample, feed rate 1 g/min), sodium salt): 9.090 μm |
